Laboratory results: DBAASP
Values after ≈ are worked out from the molar mass of the structure shown.

Legend:
Test in all cases: ≥ marks a high value that may be exact or a test limit, other limits are often not marked, values filed in µg/mL are converted to µM
[1] = test system: Pseudomonas aeruginosa Ps4
[2] = test system: Escherichia coli ATCC 25922
[3] = test system: Staphylococcus aureus FDA 209P
[4] = test system: Acinetobacter baumannii ATCC 19606
[5] = test system: Candida albicans ATCC 90028
[6] = test system: Cryptococcus neoformans ATCC 208821
[7] = test system: Klebsiella pneumoniae ATCC 700603
[8] = test system: Pseudomonas aeruginosa ATCC 27853
[9] = test system: Staphylococcus aureus ATCC 43300
[10] = test system: Staphylococcus aureus SH1000
[11] = test system: Acholeplasma laidlawii A-EF22
[12] = test system: Candida albicans ATCC 10231
[13] = test system: Klebsiella aerogenes ATCC 13048
[14] = test system: Pseudomonas aeruginosa PA14
[15] = test system: Staphylococcus aureus ATCC 29231
[16] = test system: Pseudomonas aeruginosa PAK
[17] = test system: Staphylococcus aureus
[18] = test system: Streptococcus gordonii Challis DL1
[19] = test system: Streptococcus mitis ATCC 903
[20] = test system: Streptococcus mutans UA159
[21] = test system: Streptococcus sanguinis NY101

Structure (SMILES): NC(=O)CC[C@H](NC(=O)[C@H](Cc1c[nH]c2ccccc12)NC(=O)[C@@H](N)Cc1ccccc1)C(=O)N[C@@H](CCCN=C(N)N)C(=O)N[C@@H](CC(N)=O)C(=O)N[C@@H](Cc1c[nH]c2ccccc12)C(=O)N[C@@H](CCCN=C(N)N)C(=O)N[C@@H](Cc1c[nH]c2ccccc12)C(=O)N[C@@H](CCCN=C(N)N)C(=O)N[C@@H](CCCN=C(N)N)C(N)=O [FWQRNWRWRR]
- MIC [1]: ≥ 157 µM

Structure (SMILES): CC[C@H](C)[C@H](NC(=O)[C@H](CCCN=C(N)N)NC(=O)[C@@H](NC(=O)[C@H](CC(N)=O)NC(=O)[C@H](CCCN=C(N)N)NC(=O)[C@H](Cc1c[nH]c2ccccc12)NC(=O)[C@@H](N)Cc1ccccc1)[C@@H](C)CC)C(=O)N[C@@H](Cc1c[nH]c2ccccc12)C(=O)N[C@@H](CCCN=C(N)N)C(=O)N[C@@H](CCCN=C(N)N)C(N)=O [FWRNIRIWRR]
- MIC [1]: ≥ 166 µM

Structure (SMILES): CC[C@H](C)[C@H](NC(=O)CNC(=O)[C@H](CCCCN)NC(=O)[C@@H](NC(=O)CNC(=O)[C@H](CCCCN)NC(=O)[C@@H](NC(=O)[C@@H](NC(=O)[C@H](CC(C)C)NC(=O)[C@H](CC(=O)O)NC(=O)[C@H](CCCCN)NC(=O)[C@@H](NC(=O)CNC(=O)[C@H](CCCCN)NC(=O)CNC(=O)[C@H](C)NC(=O)[C@H](Cc1ccccc1)NC(=O)[C@H](CCCCN)NC(=O)[C@H](CO)NC(=O)[C@H](Cc1ccccc1)NC(=O)[C@@H](NC(=O)CN)[C@@H](C)CC)[C@@H](C)CC)[C@@H](C)CC)[C@@H](C)CC)C(C)C)C(=O)N[C@@H](C)C(=O)N[C@@H](CCCCN)C(=O)N[C@@H](CCC(=O)O)C(=O)N[C@@H](C)C(=O)NCC(=O)N[C@@H](CCSC)C(=O)N[C@@H](CC(=O)O)C(=O)N[C@H](C(=O)N[C@H](C(=O)N[C@@H](CCCN=C(N)N)C(=O)N[C@H](C(=O)NCC(=O)N[C@H](C(=O)N[C@@H](CC(=O)O)C(=O)N[C@H](C(=O)N[C@@H](C)C(=O)NCC(=O)N[C@H]1CSSC[C@@H](C(=O)O)NC(=O)[C@H](CCC(=O)O)NC(=O)CNC(=O)[C@H](CCCCN)NC(=O)[C@H]([C@@H](C)CC)NC(=O)[C@H](CCCCN)NC1=O)[C@@H](C)CC)[C@@H](C)CC)[C@@H](C)O)[C@@H](C)CC)C(C)C [GIFSKFAGKGIKDLIIKGVKGIAKEAGMDVIRTGIDIAGCKIKGEC]
- MIC [2]: 3.2 µM (≈ 15.2 µg/mL)
- MIC [3]: 4.9 µM (≈ 23.3 µg/mL)

Structure (SMILES): CC[C@H](C)[C@H](NC(=O)CNC(=O)[C@H](CCCCN)NC(=O)[C@@H](NC(=O)CNC(=O)[C@H](CCCCN)NC(=O)[C@@H](NC(=O)[C@@H](NC(=O)[C@H](CCSC)NC(=O)[C@H](CC(N)=O)NC(=O)[C@H](CCCCN)NC(=O)[C@@H](NC(=O)CNC(=O)[C@H](CCCCN)NC(=O)CNC(=O)[C@H](C)NC(=O)[C@H](Cc1ccccc1)NC(=O)[C@H](CCCCN)NC(=O)[C@H](CO)NC(=O)[C@H](Cc1ccccc1)NC(=O)[C@H](CC(C)C)NC(=O)CN)[C@@H](C)CC)[C@@H](C)CC)[C@@H](C)CC)[C@@H](C)CC)C(=O)NCC(=O)N[C@@H](CCCCN)C(=O)N[C@@H](CCC(=O)O)C(=O)N[C@H](C(=O)NCC(=O)N[C@@H](CCSC)C(=O)N[C@@H](CC(=O)O)C(=O)N[C@H](C(=O)N[C@H](C(=O)N[C@@H](CCCN=C(N)N)C(=O)N[C@H](C(=O)NCC(=O)N[C@H](C(=O)N[C@@H](CC(=O)O)C(=O)N[C@H](C(=O)N[C@@H](C)C(=O)NCC(=O)N[C@H]1CSSC[C@@H](C(=O)O)NC(=O)[C@H](CCC(=O)O)NC(=O)CNC(=O)[C@H](CCCCN)NC(=O)[C@H]([C@@H](C)CC)NC(=O)[C@H](CCCCN)NC1=O)C(C)C)[C@@H](C)CC)[C@@H](C)O)[C@@H](C)CC)C(C)C)C(C)C [GLFSKFAGKGIKNMIIKGIKGIGKEVGMDVIRTGIDVAGCKIKGEC]
- MIC [2]: 1.7 µM (≈ 8.13 µg/mL)
- MIC [3]: 3 µM (≈ 14.3 µg/mL)

Structure (SMILES): CC(C)C[C@H](NC(=O)[C@H](C)NC(=O)[C@H](CCCCN)NC(=O)[C@H](CC(C)C)NC(=O)[C@H](CC(C)C)NC(=O)[C@H](CCCCN)NC(=O)[C@H](CCCCN)NC(=O)[C@H](CC(C)C)NC(=O)[C@H](CC(C)C)NC(=O)[C@H](CCCCN)NC(=O)[C@H](CC(C)C)NC(=O)[C@H](CC(C)C)NC(=O)[C@@H](N)CCCCN)C(=O)NCC(N)=O [KLLKLLKKLLKALG]
- MIC [4]: 1 µM (≈ 1.58 µg/mL)
- MIC [5]: 20 µM (≈ 31.6 µg/mL)
- MIC [6]: 3 µM (≈ 4.73 µg/mL)
- MIC [2]: 20 µM (≈ 31.6 µg/mL)
- MIC [7]: > 20 µM
- MIC [8]: > 20 µM
- MIC [9]: 10 µM (≈ 15.8 µg/mL)
- MIC [10]: ≥ 33 µM

Structure (SMILES): CC(C)C[C@H](NC(=O)[C@H](C)NC(=O)CNC(=O)[C@@H](NC(=O)[C@@H](NC(=O)[C@H](CCCCN)NC(=O)[C@H](CCCCN)NC(=O)[C@@H](NC(=O)[C@H](CC(C)C)NC(=O)[C@H](CCCCN)NC(=O)[C@H](CC(C)C)NC(=O)[C@H](CC(C)C)NC(=O)[C@@H](N)CCCCN)C(C)C)C(C)C)C(C)C)C(=O)NCC(N)=O [KLLKLVKKVVGALG]
- MIC [4]: > 22 µM
- MIC [5]: 22 µM (≈ 32.2 µg/mL)
- MIC [6]: 22 µM (≈ 32.2 µg/mL)
- MIC [2]: > 22 µM
- MIC [7]: > 22 µM
- MIC [8]: > 22 µM
- MIC [9]: > 22 µM
- MIC [10]: ≥ 33 µM

Structure (SMILES): CC(C)C[C@H](NC(=O)[C@H](CC(C)C)NC(=O)[C@H](CCCCN)NC(=O)[C@H](CC(C)C)NC(=O)[C@H](CC(C)C)NC(=O)[C@H](CC(C)C)NC(=O)[C@@H](N)CCCCN)C(=O)N[C@@H](CCCCN)C(=O)O [KLLLKLLK]
- MIC [11]: ≥ 100 µM

Structure (SMILES): CC[C@H](C)[C@H](NC(=O)[C@H](CCCCN)NC(=O)[C@H](Cc1c[nH]c2ccccc12)NC(=O)[C@H](CC(C)C)NC(=O)[C@@H](NC(=O)[C@H](CCCCN)NC(=O)[C@H](Cc1c[nH]c2ccccc12)NC(=O)[C@@H](N)CC(C)C)[C@@H](C)CC)C(=O)N[C@@H](Cc1c[nH]c2ccccc12)C(=O)N[C@@H](CCCN=C(N)N)C(=O)N[C@H](C(=O)N[C@@H](CC(C)C)C(=O)N[C@@H](CCCCN)C(=O)N[C@@H](CC(N)=O)C(=O)N[C@@H](Cc1c[nH]c2ccccc12)C(=O)N[C@@H](CCCN=C(N)N)C(=O)O)C(C)C [LWKILWKIWRVLKNWR]
- MIC [12]: > 57.2 µM
- MIC [13]: ≥ 57.2 µM
- MIC [14]: ≥ 57.2 µM
- MIC [15]: 28.6 µM (≈ 64 µg/mL)

Structure (SMILES): CC[C@H](C)[C@H](NC(=O)[C@H](Cc1ccccc1)NC(=O)CNC(=O)CNC(=O)[C@H](CO)NC(=O)[C@H](Cc1cnc[nH]1)NC(=O)[C@H](CC(C)C)NC(=O)[C@H](CC(C)C)NC(=O)[C@H](Cc1cnc[nH]1)NC(=O)[C@H](Cc1cnc[nH]1)NC(=O)[C@H](CC(C)C)NC(=O)[C@H](CCCCN)NC(=O)[C@H](CCCCN)NC(=O)[C@H](CC(C)C)NC(=O)[C@H](CC(C)C)NC(=O)[C@H](CCCN=C(N)N)NC(=O)[C@H](CCCN=C(N)N)NC(=O)[C@H](Cc1c[nH]c2ccccc12)NC(=O)[C@@H](N)CCCN=C(N)N)C(=O)N[C@@H](CCCCN)C(=O)N[C@@H](Cc1cnc[nH]1)C(=O)N[C@@H](Cc1ccccc1)C(=O)N[C@H](C(=O)N[C@@H](Cc1cnc[nH]1)C(=O)N[C@@H](CCCN=C(N)N)C(=O)N[C@@H](Cc1ccccc1)C(N)=O)[C@@H](C)CC [RWRRLLKKLHHLLHSGGFIKHFIHRF]
- MIC [16]: 9.6 µM (≈ 32 µg/mL)
- MIC [17]: 9.6 µM (≈ 32 µg/mL)
- MIC [18]: 4.8 µM (≈ 16 µg/mL)
- MIC [19]: 9.6 µM (≈ 32 µg/mL)
- MIC [20]: 2.4 µM (≈ 8 µg/mL)
- MIC [21]: 9.6 µM (≈ 32 µg/mL)

Structure (SMILES): CC[C@H](C)[C@H](NC(=O)[C@H](Cc1ccccc1)NC(=O)CNC(=O)CNC(=O)CNC(=O)[C@H](Cc1ccccc1)NC(=O)[C@H](Cc1c[nH]c2ccccc12)NC(=O)[C@H](CCCN=C(N)N)NC(=O)[C@H](Cc1c[nH]c2ccccc12)NC(=O)[C@H](CCCN=C(N)N)NC(=O)[C@H](Cc1c[nH]c2ccccc12)NC(=O)[C@@H](N)CCCN=C(N)N)C(=O)N[C@@H](CCCCN)C(=O)N[C@@H](Cc1cnc[nH]1)C(=O)N[C@@H](Cc1ccccc1)C(=O)N[C@H](C(=O)N[C@@H](Cc1cnc[nH]1)C(=O)N[C@@H](CCCN=C(N)N)C(=O)N[C@@H](Cc1ccccc1)C(N)=O)[C@@H](C)CC [RWRWRWFGGGFIKHFIHRF]
- MIC [16]: 24.1 µM (≈ 62.5 µg/mL)
- MIC [17]: 12.4 µM (≈ 32 µg/mL)
- MIC [18]: 12.4 µM (≈ 32 µg/mL)
- MIC [19]: 12.4 µM (≈ 32 µg/mL)
- MIC [20]: 3.09 µM (≈ 8 µg/mL)
- MIC [21]: 12.4 µM (≈ 32 µg/mL)
